Measurements taken from patent US11549950B2, “Cryptic metabolites and method for activating silent biosynthetic gene clusters in diverse microorganisms” (The Trustees of Princeton University, priority 2017, dated 2023).

Key:
Assay type in all cases: cell-based
[1] = tested on: Amycolatopsis keratiniphila NRRL B24117; test: HiTES-IMS elicitor screen and validation, cryptic metabolites of A. keratiniphila; conditions: for induction of compound with m/z 1286 / elicitation of keratinimicin A (m/z 1811) synthesis / induction of compound with m/z 1425: HiTES-IMS, 502-member natural products library; for elicitation of keratinimicin A and keratinicyclin B, follow-up experiments: 7.8 μM vincamine, 2 μM Dhe, HR-MS
Procedure: (§1) In other examples, freshly-collected spores of S. canus or A. keratiniphila (˜10^7) were transferred to 50 mL YEME medium (3% (w/v) yeast extract, 5% peptone, 3% malt extract, 1% glucose, 34% sucrose, and 5 mM MgCl2.6H2O) in a 250 mL Erlenmeyer flask fitted with a stainless-steel spring and cultured at 30° C./250 rpm for 3 days. Mycelia were then collected by centrifugation (10 min, 3000 g, RT) and diluted into 300 mL of R4 medium to give a final concentration of 0.05% (w/v). R4 medium^1 consisted of 0.5% (w/v) glucose, 0.1% yeast extract, 0.5% MgCl2.6H2O, 0.2% CaCl2.2H2O, 0.15% proline, 0.118% valine, 0.28% TES, 50 mg/L casamino acid, 100 mg/L K2SO4, and 1× trace element solution, which contains 40 mg/L ZnCl2, 200 mg/L FeCl3.6H2O, 10 mg/L CuCl2.2H2O, 10 mg/L MnCl2.4H2O, 10 mg/L Na2B4O7.10H2O, and 10 mg/L (NH4)6Mo7O24.4H2O). Subsequently 300 μL were dispensed into six deep-well 96-well plates using a MultiFlo Microplate Dispenser. The wells were supplemented with candidate elicitors from the same 502-member natural products library used above with the aid of a CyBi-Well automated liquid transfer robot. Each well received 0.85 μL of an elicitor (from a stock concentration of 10 mM). The plates were sealed with air-permeable membranes and grown at 30° C./250 rpm. After 5 days, the samples were desalted as described above for P. protegens.
(§2) In one example, a laser ablation electrospray ionization (LAESI) DP1000 system (Protea Bioscience) coupled to a LTQ XL mass spectrometer (Thermo) was used for IMS analysis. The extension tube connecting the two instruments was kept at 130° C. with an external heater and the sample stage was kept at 10° C. during analysis. Sheath gas flow was set to 2.0 L/h. Eighty laser pulses were applied to each well to ablate samples using an 80% laser energy setting (˜850 μJ) and a 10 Hz frequency. A solution of 2:1 MeCN/water with 0.1% acetic acid (v/v) was supplied as the electrospray solution by a syringe pump running at a flow rate of 1 μL/min. The emitter was connected to high voltage power operating at +4000V or +4500V in positive ion detection mode. All data were visualized in ProteaPlot software.
In one example, after data collection, the signals observed in each well were extracted using GMSU-LAESI software (Gubbs, Inc), which gave all m/z values and the corresponding intensities per well (i.e. per elicitor). The data were binned in 1 m/z units for 3D-plotting. Signals with an intensity lower than a set threshold were not included in the 3D plots. The data were plotted in MatLab using the bar3 function. The component 2D plots were extracted from the corresponding 3D data in MatLab and plotted in Excel. The 2D plots were normalized to the highest intensity peak. Each signal was correlated with an elicitor.
Application of HiTES-IMS to Rare Actinomycetes. The disclosed approach was also applied to rare actinomycetes, a group of bacteria that account for some structurally fascinating and functionally potent metabolites, including the antibiotic of-last-resort vancomycin as well as the anticancer agent calicheamicin. Rare actinomycetes are an ideal test case for HiTES-IMS because in addition to their abundance of silent BGCs, they are difficult to manipulate genetically, thus all but precluding transcriptional reporter assays. Amycolatopsis keratiniphila NRRL B24117 were chosen as a test case. Its genome has not been sequenced, but efforts to find further BGCs that encode glycopeptide antibiotics (GPAs) using PCR had shown that it contains a vancomycin-like BGC, though a product has not yet been reported. A. keratiniphila was subjected to HiTES-IMS and obtained the metabolome shown, focusing on the mass range of typical GPAs (FIG. 9A). […] Additionally, a compound with m/z 1425 was induced by similar elicitors, including galangin and evodiamine (FIG. 10B). […]

[2] = tested on: Pseudomonas protegens Pf-5; test: HiTES-IMS elicitor screen and flask validation, orfamide production; conditions: for elicitation of orfamide production: HiTES-IMS, 502-member natural products library, 96-well plates
Procedure: In one example, P. protegens was streaked out onto an LB-agar plate from frozen culture stocks and grown at 30° C. overnight. Colonies were used to inoculate 5 mL of LB in a 14 mL sterile culture tube, which was cultured 12-13 h at 30° C./250 rpm. The overnight culture was then used to inoculate 550 mL LB in a sterile Erlenmeyer flask to an initial optical density at 600 nm (OD600 nm) of 0.01. The culture was distributed into six sterile, deep-well 96-well plates (0.9 mL per well) using a MultiFlo Microplate Dispenser (BioTek). Subsequently, elicitors were added from a commercially-available 502-member natural products library (Enzo Scientific, cat #BML-2865) using a CyBi-Well automated liquid transfer robot (CyBio). Each well received 2.5 μL of an elicitor (from a stock concentration of 10 mM). The plates were sealed with air-permeable membranes and grown at 25° C./200 rpm. After 44 h, the plates were spun down, supernatants loaded onto a 96-well Strata C8-resin (Phenomenex), and the material eluted with 600 μL of 50% and 600 μL 100% MeCN into fresh 96 well plates. The eluates were then dried in a speedvac and resuspended in 30 μL of 40% MeCN (in water).
In one example, a laser ablation electrospray ionization (LAESI) DP1000 system (Protea Bioscience) coupled to a LTQ XL mass spectrometer (Thermo) was used for IMS analysis. The extension tube connecting the two instruments was kept at 130° C. with an external heater and the sample stage was kept at 10° C. during analysis. Sheath gas flow was set to 2.0 L/h. […]
As another example, Orfamides are lowly-expressed metabolites isolated from Pseudomonas protegens Pf-5 (hereafter P. protegens). […] The resulting metabolomes were analyzed using laser ablation-coupled electrospray ionization MS (LAESI-MS), an emerging method in which a mid-IR laser beam generates an ablation plume of metabolites that are ionized by an electrospray and introduced into the mass spectrometer. […] No signals were detected below m/z 1250 and above m/z 1650. […]

[3] = tested on: Amycolaptopsis sp. B-24117; test: LAESI-MS elicitor screen (FIG. 20); conditions: concentration of 30 μM each
Procedure: In another example, to commence a screen, Amycolaptopsis sp. B-24117 spore stocks were used to inoculate 100 mL of R4 medium in a 500 mL Erlenmeyer flask (approx. 10^6 spores). These were grown overnight and then dispensed into 5×95 CORNING® COSTAR® 96 well cell culture plates using a BioTek MULTIFLO™ microplate dispenser. 150 μL was dispensed into each well, which were then supplemented with each 1 μL from the Natural Products small molecule library (Enzo Scientific). The plates were grown again at 30° C. and 250 rpm for 4 days before being imaged using a Laser Ablation Electrospray Mass Spectrometer (LAESI-MS), which consisted of a Protea Biosciences LAESI® DP-1000 module coupled to a THERMO SCIENTIFIC™ LTQ mass spectrometer. Imaging of each plate was conducted as per manufacturer instructions using 1:1 MeCN/water at a flow rate of 1 μL/min to ablate the samples into the mass spectrometer. The spectrum was collected for 8 seconds per well. The data were then analyzed using ProteaPlot software, searching for mass ions that were induced by elicitors and absent in untreated samples. Referring to FIG. 20, this led to identification of a mass ion (reference 230, m/s 1810, keratinimicin A).

[4] = tested on: Streptomyces canus NRRL B3980; test: HiTES-IMS elicitor screen and flask validation, cryptic metabolites of S. canus
Procedure: as §1, §2
In one example, after data collection, the signals observed in each well were extracted using GMSU-LAESI software (Gubbs, Inc), which gave all m/z values and the corresponding intensities per well (i.e. per elicitor). The data were binned in 1 m/z units for 3D-plotting. […]
Application of HiTES-IMS to Streptomycetes. […] Three clusters of peaks, representing three compound families appeared to be elicited: compounds were detected with m/z ranging from 1260-1295, which further analysis identified as the amphomycins. […] A second set of induced compounds was also detected with m/z ranging from 1220-1245. […]

[5] = HiTES-IMS, 502-member natural products library

## CC[C@H]1[C@@H]2C[C@H]3[C@@H]4N(C)c5ccccc5[C@]45C[C@@H]([C@H]2[C@H]5O)N3[C@@H]1O [ajmaline]
[1]
  induction of compound with m/z 1286: induced

## C[C@@]12CCc3occc3[C@H]1CC[C@@]13C[C@@H](CC[C@H]12)[C@@](O)(CO)C3 [cafestol]
[2]
  elicitation of orfamide production: Optimal production
[2]; flask cultures, HPLC-MS, 22 μM
  induction of orfamide A: stimulatory activity was further confirmed

## CC(C)[C@@]1(NC(=O)[C@@H]2C[C@@H]3c4cccc5[nH]cc(c45)C[C@H]3N(C)C2)O[C@@]2(O)[C@@H]3CCCN3C(=O)[C@H](Cc3ccccc3)N2C1=O [dihydroergocristine]
[1]
  elicitation of keratinimicin A and keratinicyclin B, follow-up experiments: strong stimulatory activity
  elicitation of keratinimicin A (m/z 1811) synthesis: most effective elicitors
[3]
  elicitation of mass ion m/s 1810, keratinimicin A: best elicitors

## O=c1c(O)c(-c2ccccc2)oc2cc(O)cc(O)c12 [galangin]
[1]
  induction of compound with m/z 1286: induced
  induction of compound with m/z 1425: induced

## O=C1Cc2c([nH]c3ccc(Br)cc23)-c2ccccc2N1 [kenpaullone]
[4]; [5]
  elicitation of canucin A (m/z 1579) synthesis: most effective elicitor
[4]; validation, flask cultures, 17 μM
  induction of canucin A and B: strong induction

## O=c1c(O)c(-c2ccc(O)cc2O)oc2cc(O)cc(O)c12 [morin]
[4]; [5]
  elicitation of amphomycins (m/z 1260-1295): best elicitors

## C=C[C@H]1C[N@@]2CC[C@H]1C[C@H]2[C@H](O)c1ccnc2ccc(OC)cc12 [quinine]
[4]; [5]
  elicitation of amphomycins (m/z 1260-1295): best elicitors

## O=C1c2ccccc2-n2c1nc1ccccc1c2=O [tryptanthrin]
[3]
  elicitation of mass ion m/s 1810, keratinimicin A: best elicitors

## CC[C@]12CCCN3CCc4c(n(c5ccccc45)[C@@](O)(C(=O)OC)C1)[C@@H]32 [vincamine]
[1]
  elicitation of keratinimicin A and keratinicyclin B, follow-up experiments: strong stimulatory activity
  elicitation of keratinimicin A (m/z 1811) synthesis: most effective elicitors

## CCC1=C[C@@H]2CN(C1)Cc1c([nH]c3ccccc13)[C@@](C(=O)OC)(c1cc3c(cc1OC)N(C)[C@H]1[C@@](O)(C(=O)OC)[C@H](OC(C)=O)[C@]4(CC)C=CCN5CC[C@]31[C@@H]54)C2 [vinorelbine]
[2]
  elicitation of orfamide production: Optimal production

## evodiamine
[1]
  induction of compound with m/z 1286: induced
  induction of compound with m/z 1425: induced
